{
  "source": "patent US10087156B2",
  "about": "“Methods and compositions related to retinoid receptor-selective pathway” (Sanford Burnham Prebys Medical Discovery Institute, priority 2010, dated 2018)",
  "key": {"RXRα LBD": {"biological_target": "RXRα LBD (Homo sapiens, UniProt P19793)", "sequence (P19793 227-458 limits assumed)": "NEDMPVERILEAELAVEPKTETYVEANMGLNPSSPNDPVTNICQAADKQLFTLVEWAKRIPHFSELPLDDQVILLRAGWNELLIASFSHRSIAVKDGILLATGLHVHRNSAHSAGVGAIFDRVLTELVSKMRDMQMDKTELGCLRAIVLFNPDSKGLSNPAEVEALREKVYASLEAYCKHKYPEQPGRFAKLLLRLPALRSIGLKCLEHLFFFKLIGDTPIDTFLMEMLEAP", "assay": "19F NMR binding assay", "settings": "100 μM compound, 10 μM RXRα LBD"}, "ZR-75-1 cells": {"system": "ZR-75-1 cells", "assay": "PARP cleavage with TNFα by immunoblotting", "assay_type": "cell-based, human", "settings": "K-80003 50 μM, Sulindac 75 μM, 6 hr", "experimental": "ZR-75-1 cells were treated with TNFα and/or Sulindac (75 μM) or K-80003 (50 μM) for 6 hr and analyzed by immunoblotting."}, "RXRα/Δ80 tumor": {"system": "RXRα/Δ80 tumor", "assay": "RXRα/Δ80 tumor growth in animals", "assay_type": "in vivo", "settings": "mice, 60 mg/kg intraperitoneally, two weeks", "experimental": "Mice (n=6) were treated intraperitoneally with corn oil, Sulindac (60 mg/kg), or K-80003 (60 mg/kg) for two weeks. Tumors were removed and measured. […] Together, the RXRα-selective Sulindac analog K-80003 is a potent inhibitor of RXRα-mediated PI3K/AKT signaling and cancer cell growth."}, "[1]": {"system": "interaction of p85α with tRXRα and/or RXRα", "assay": "Co-immunoprecipitation with ΔN197 anti-RXRα antibody", "assay_type": "cell-based", "settings": "TNFα-enhanced", "experimental": "RXRα interaction with p85α was examined. Anti-RXRα […]antibodies (Santa Cruz Biotechnology, Santa Cruz, Calif.) were used in co-immunoprecipitation (Co-IP) and Western blotting (WB) assays. BHK cells were treated with ATRA (10^−7 M) for 30 min. Lysates were prepared and analyzed for RXRα-p85α interaction using either D20 anti-RXRα or ΔN197 anti-RXRα antibody (FIG. 12D).\nFor the CoIP assay, cells or cells transfected with indicated expression vectors were suspended in lysis buffer (50 mM Tris-HCl, pH 7.4; 150 mM NaCl; 20 mM EDTA; 1% NP-40; 1 mM PMSF; […] Leupeptin; […] Aprotinin; 0.1 mM Na3VO4; and 1 mM DTT). Cell extracts were cleared by incubation with the Protein A/G plus Agarose beads (Santa Cruz Biotechnology, Santa Cruz, Calif.) and then incubated with appropriate antibody and […] of Protein A or G plus Agarose beads overnight at 4° C. Beads were then washed and boiled in Laemmli gel-loading solution before performing SDS-PAGE/immunoblotting using polyclonal or monoclonal antibodies. Immunoreactive products were detected by chemiluminescence with an enhanced chemiluminescence system (ECL™) (Amersham Biosciences, Amersham, UK)."}, "Nur77": {"biological_target": "T1, Nur77 (Homo sapiens, UniProt P22736)", "T1 construct": "expressed in transfected cells", "T1 sequence (P22736 whole entry, species assumed, the tested form may be a part)": "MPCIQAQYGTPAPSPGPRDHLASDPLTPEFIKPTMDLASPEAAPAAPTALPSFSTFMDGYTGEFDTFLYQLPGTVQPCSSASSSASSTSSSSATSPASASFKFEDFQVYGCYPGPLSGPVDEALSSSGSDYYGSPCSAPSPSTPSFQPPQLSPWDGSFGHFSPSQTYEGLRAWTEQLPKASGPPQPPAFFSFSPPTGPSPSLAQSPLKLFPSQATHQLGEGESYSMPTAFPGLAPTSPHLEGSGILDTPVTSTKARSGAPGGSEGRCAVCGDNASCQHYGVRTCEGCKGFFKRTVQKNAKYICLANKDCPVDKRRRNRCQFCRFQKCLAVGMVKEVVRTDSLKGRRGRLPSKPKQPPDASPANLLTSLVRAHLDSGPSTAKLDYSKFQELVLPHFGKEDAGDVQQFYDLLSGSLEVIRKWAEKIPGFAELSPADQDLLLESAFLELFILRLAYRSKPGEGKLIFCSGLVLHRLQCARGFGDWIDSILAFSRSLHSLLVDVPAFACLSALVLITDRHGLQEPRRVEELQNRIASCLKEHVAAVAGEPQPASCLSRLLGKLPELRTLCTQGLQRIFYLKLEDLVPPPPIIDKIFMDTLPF", "assay": "HPLC analysis of sulindac sulfide binding to receptor protein in cells", "settings": "HEK293T cells, 100 μM, 3 hr", "experimental": "(§1) Competitive ligand-binding assays (FIG. 1A) and HPLC analysis of Sulindac binding to RXRα, Nur77, or RARβ in HEK293T cells (FIG. 1B) were performed. RXRα LBD protein was incubated with [^3H]9-cis-RA in the presence or absence of Sulindac or unlabeled 9-cis-RA. Bound [^3H]9-cis-RA was quantitated by liquid scintillation counting (FIG. 1A). HEK293T cells stably expressing RXRαfused to a C-terminal TAP tag (Stratagene, La Jolla, Calif.) were treated with or without 100 μM sulindac sulfide for 3 hr. After treatment, cells were purified and analyzed by HPLC for the presence of sulindac sulfide. A standard solution of sulindac sulfide was used to obtain the calibration curve. Characteristic peak spectrum and retention time was used for identification, and peak areas at max used for quantification were calculated (FIGS. 1B and 10).\n(§2) Expression vector containing receptor fused to C-terminal TAP fusion (Stratagene, La Jolla, Calif.) was transfected into HEK293 cells using FuGene 6 transfection reagent (Roche, Basel, Switzerland). The cells were maintained in exponential growth in complete medium, DMEM (Mediatech Inc., Herndon, Va.) supplemented with 10% calf serum (SCS, Hyclone Logan, Utah), 2 mM glutamine, penicillin (100 U/ml) and streptomycin (100 μg/ml). At two days post-transfection cells were switched into medium containing […] G418 until 20 days post-transfection, when dishes were scored for drug-resistant colonies. Expression of RXRα fusion protein was determined by immunoblotting. […] A standard solution of sulindac sulfide was used to obtain the calibration curve."}, "RXRα": {"biological_target": "T2, RXRα (Homo sapiens, UniProt P19793)", "T2 construct": "expressed in transfected cells", "T2 sequence (P19793 whole entry)": "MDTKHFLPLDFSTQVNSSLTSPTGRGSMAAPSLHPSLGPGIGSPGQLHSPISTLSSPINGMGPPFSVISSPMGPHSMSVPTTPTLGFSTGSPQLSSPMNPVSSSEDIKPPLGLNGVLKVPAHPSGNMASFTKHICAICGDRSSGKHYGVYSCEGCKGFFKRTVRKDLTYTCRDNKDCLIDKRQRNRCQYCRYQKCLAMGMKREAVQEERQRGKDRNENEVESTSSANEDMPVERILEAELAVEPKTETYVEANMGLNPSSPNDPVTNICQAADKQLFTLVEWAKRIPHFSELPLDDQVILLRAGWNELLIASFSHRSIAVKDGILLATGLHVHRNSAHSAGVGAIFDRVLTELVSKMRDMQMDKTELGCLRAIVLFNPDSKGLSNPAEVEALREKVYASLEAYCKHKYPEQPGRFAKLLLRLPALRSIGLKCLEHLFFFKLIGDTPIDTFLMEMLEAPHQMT", "assay": "HPLC analysis of sulindac sulfide binding to receptor protein in cells", "settings": "HEK293T cells stably expressing TAP-tagged receptor, 100 μM, 3 hr", "experimental": "as §1, §2"}, "RARβ": {"biological_target": "T3, RARβ (Homo sapiens, UniProt P10826)", "T3 construct": "expressed in transfected cells", "T3 sequence (P10826 whole entry, species assumed)": "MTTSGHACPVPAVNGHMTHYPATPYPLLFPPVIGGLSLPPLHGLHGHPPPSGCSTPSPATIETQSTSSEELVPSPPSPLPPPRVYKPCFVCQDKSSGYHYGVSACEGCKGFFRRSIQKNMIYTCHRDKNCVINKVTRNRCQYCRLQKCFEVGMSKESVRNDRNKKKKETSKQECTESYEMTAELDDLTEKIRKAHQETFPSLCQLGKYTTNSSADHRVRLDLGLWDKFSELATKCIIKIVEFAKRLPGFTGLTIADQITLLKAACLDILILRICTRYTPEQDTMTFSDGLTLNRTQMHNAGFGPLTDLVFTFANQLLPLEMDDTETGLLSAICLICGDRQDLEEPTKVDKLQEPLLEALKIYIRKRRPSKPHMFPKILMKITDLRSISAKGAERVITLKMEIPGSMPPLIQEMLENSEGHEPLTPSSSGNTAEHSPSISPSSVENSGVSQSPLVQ", "assay": "HPLC analysis of sulindac sulfide binding to receptor protein in cells", "settings": "HEK293T cells, 100 μM, 3 hr", "experimental": "as §1, §2"}, "RARγ protein": {"biological_target": "RARγ protein (Homo sapiens, UniProt P13631)", "sequence (P13631 whole entry, species assumed)": "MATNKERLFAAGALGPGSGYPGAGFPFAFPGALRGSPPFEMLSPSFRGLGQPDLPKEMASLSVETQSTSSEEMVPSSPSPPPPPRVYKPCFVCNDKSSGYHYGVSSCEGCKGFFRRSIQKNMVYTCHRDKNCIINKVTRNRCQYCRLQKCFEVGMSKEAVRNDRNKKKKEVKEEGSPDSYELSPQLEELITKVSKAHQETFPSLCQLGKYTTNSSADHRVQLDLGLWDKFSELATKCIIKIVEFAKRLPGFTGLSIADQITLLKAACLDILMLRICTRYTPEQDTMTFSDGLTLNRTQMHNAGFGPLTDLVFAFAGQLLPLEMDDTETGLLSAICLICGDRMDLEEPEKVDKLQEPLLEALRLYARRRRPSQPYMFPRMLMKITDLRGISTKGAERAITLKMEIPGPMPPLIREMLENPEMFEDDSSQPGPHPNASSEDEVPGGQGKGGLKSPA", "assay": "Ligand-binding assay with [3H]all-trans-RA", "settings": "competition with [3H]all-trans-RA", "experimental": "Purified RARγ protein was incubated with [^3H]all-trans-RA in the presence or absence of Sulindac or unlabeled all-trans RA. Bound [^3H]all-trans-RA was quantitated by liquid scintillation counting."}, "RXRα/PPARγ heterodimer": {"biological_target": "T4, RXRα/PPARγ heterodimer (Homo sapiens, UniProt P19793)", "T4 construct": "expressed in transfected cells; host or cells: CV-1 green monkey kidney cells", "T4 sequence (P19793 whole entry)": "as the sequence (P19793 whole entry) above", "T4 sequence (P37231 whole entry partner)": "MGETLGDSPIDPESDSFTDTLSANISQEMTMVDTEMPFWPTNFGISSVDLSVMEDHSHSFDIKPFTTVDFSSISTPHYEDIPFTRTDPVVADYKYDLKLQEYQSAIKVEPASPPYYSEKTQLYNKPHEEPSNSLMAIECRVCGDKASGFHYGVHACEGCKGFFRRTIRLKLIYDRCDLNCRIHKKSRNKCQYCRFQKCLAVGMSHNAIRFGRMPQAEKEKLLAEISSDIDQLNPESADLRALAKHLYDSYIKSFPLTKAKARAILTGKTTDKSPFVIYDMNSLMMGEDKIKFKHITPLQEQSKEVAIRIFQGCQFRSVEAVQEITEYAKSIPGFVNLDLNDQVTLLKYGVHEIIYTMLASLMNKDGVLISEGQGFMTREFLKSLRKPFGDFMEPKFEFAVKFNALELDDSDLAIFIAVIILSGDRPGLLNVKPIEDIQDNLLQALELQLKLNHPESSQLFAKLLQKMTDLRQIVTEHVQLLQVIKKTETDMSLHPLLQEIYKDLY", "assay": "DR1 tk-CAT reporter assay in CV-1 cells", "assay_type": "cell-based", "settings": "ciglitazone 10^−6 M", "experimental": "Receptor expression vectors and a reporter gene (TREpal2-tk-CAT for RXRα/TRα heterodimers (FIG. 9C), and DR1 tk-CAT for RXRα/PPARγ heterodimer (FIG. 9B)) were transiently transfected into CV-1 cells. Cells were treated with or without ligands (ciglitazone, 10^−6 M; T3, 10^−7 M) in the presence or absence of Sulindac. CAT activity was determined.\nCells (1×10^5 cells/well) seeded in 24-well plates were transiently transfected using a modified calcium phosphate precipitation procedure as described (Kolluri, S. K. et al., Proc Natl Acad Sci USA 102 (7), 2525-2530 (2005); Cao, X., et al., Mol Cell Biol 24(22), 9705-9725 (2004))."}, "COX": {"system": "COX", "settings": "Haanen, 2001; cited from earlier work"}},
  "data": [
    {"compound": "CC1=C(CC(=O)O)c2cc(F)ccc2/C1=C\\c1ccc(C(C)C)cc1", "note": "[K-80003, (Z)-2-(3-(4-Iso-propylbenzylidene)-6-fluoro-2-methyl-3H-inden-1-yl)acetic acid]", "values": [
      {"measurement": "binding to RXRα by 19F NMR", "setting": "RXRα LBD", "value": "confirmed"},
      {"measurement": "induction of PARP cleavage together with TNFα, compared with Sulindac", "setting": "ZR-75-1 cells", "value": "more effective than Sulindac"},
      {"measurement": "inhibition of RXRα/Δ80 tumor growth, compared with Sulindac", "setting": "RXRα/Δ80 tumor", "value": "much more potent inhibitory effect than Sulindac"}
    ]},
    {"compound": "CSc1ccc(/C=C2/C(C)=C(CC(=O)O)c3cc(F)ccc32)cc1", "note": "[Sulindac, (Z)-2-(3-(4-(Methylthio)benzylidene)-6-fluoro-2-methyl-3H-inden-1-yl)acetic acid]", "values": [
      {"measurement": "interaction of p85α with tRXRα and/or RXRα", "setting": "[1]", "value": "inhibited"},
      {"measurement": "binding to Nur77 in cells by HPLC", "setting": "Nur77", "value": "not other nuclear receptors such as RAR and Nur77"},
      {"measurement": "binding to RXRα in cells by HPLC", "setting": "RXRα", "value": "direct binding"},
      {"measurement": "binding to RAR in cells by HPLC", "setting": "RARβ", "value": "not other nuclear receptors such as RAR and Nur77"},
      {"measurement": "binding to RARγ", "setting": "RARγ protein", "value": "did not bind"},
      {"measurement": "transactivation of RXRα/PPARγ heterodimers (CAT activity)", "setting": "RXRα/PPARγ heterodimer", "value": "inhibited transactivation"},
      {"measurement": "COX-inhibiting activity", "setting": "COX", "value": "potent COX inhibitor"}
    ]}
  ]
}
